{"source": "BindingDB's records for doi:10.1021/acschembio.6b00666", "about": "(Virginia Tech, 2016)", "key": {"[1]": {"target": "T1, L-ornithine N(5)-monooxygenase (Aspergillus fumigatus (strain ATCC MYA-4609 / CBS 101355 / FGSC A1100 / Af293), UniProt E9QYP0)", "T1 sequence (E9QYP0 whole entry)": "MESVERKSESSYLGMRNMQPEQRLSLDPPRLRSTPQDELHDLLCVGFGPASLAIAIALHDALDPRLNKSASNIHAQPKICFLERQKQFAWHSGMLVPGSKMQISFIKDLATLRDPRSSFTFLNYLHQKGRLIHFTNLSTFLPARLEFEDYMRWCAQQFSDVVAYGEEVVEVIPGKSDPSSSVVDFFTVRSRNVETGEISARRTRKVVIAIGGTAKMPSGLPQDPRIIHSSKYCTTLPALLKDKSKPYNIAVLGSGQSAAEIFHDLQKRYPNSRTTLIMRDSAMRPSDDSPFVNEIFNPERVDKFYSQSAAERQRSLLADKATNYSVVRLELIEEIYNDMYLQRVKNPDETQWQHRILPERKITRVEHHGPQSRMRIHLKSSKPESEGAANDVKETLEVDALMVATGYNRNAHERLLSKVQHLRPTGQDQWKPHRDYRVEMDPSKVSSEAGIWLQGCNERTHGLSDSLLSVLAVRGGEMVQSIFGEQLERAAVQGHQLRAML", "assay": "ADP-TAMRA Binding Assay", "settings": "pH 7", "protocol": "The 96 well plates were used, and the reaction volume was 25 μL using 50 mM sodium phosphate buffer (pH 7.0). For the screening, 30 nM of ADP-TAMRA with 2 μM SidA (based on the Bradford assay) and 20 μM of library compound were used, withthe final DMSO concentration at 2%. Fluorescence polarization measurements were performed with excitation at 544 nm and emission at 584 nm, using a wavelength cutoff of 570 nm. Anisotropy values were normalized to the values obtained in the negative control sample: SidA, ADP-TAMRA, and DMSO. The positive control consisted of ADP-TAMRA and DMSO."}, "[2]": {"target": "T1, L-ornithine N(5)-monooxygenase", "assay": "SidA Activity Assay", "settings": "pH 7.5", "protocol": "Briefly, this assay consists of the formation of nitrite from hydroxyl amine that is quantified by formation of a chromophore with α-naphthylamine, which has an absorbance maximum at 529 nm. Formation of HO-Orn was quantified using a standard curve with hydroxylamine (25−350 μM). The standard assay contained 25 μL of 100 mM sodium phosphate (pH 7.5), 1 μM SidA, 500 μM L-Orn, and 250 μM NADPH for activity and IC50 determinations. Compound concentration was varied from 0.01 to 1 mM, and the reaction mix contained a final DMSO concentration of 10%. The reaction was started with the addition of NADPH, allowed to proceed for 20 min atRT, and quenched with 13 μL of 2 N HClO4. To identify compounds that caused inhibition by inducing protein aggregation, the IC50 was determined in 100 mM phosphate buffer, pH 7.5, containing 0.1% v/v Triton X-100.23 As some compounds had either an increase or decrease in the color development or had absorbance at a visi"}}}
{"smiles": "CC1=C(O)C(=O)C=C2C1=CC=C1[C@@]2(C)CC[C@@]2(C)[C@@H]3C[C@](C)(C(=O)O)CC[C@]3(C)CC[C@]12C", "note": "[Celastrol]", "values": [{"measurement": "Kd", "setting": "[1]", "value": 1.4, "unit": "µM"}, {"measurement": "IC50", "setting": "[2]", "value": 11, "unit": "µM"}]}
